From patent US12714688B2, “Margaric acid decreases PIEZ02-mediated pain” (The United States of America, as represented by The …, priority 2020, dated 2026)

Experiments:
[1] = tested on: mechano-currents from DRG neurons; settings: cited from earlier work
[2] = tested on: mouse PIEZO2; experiment: Whole-cell patch-clamp with mechanical indentation of N2A^Piezo1−/− cells transfected with Piezo2 variant 2 (V2); settings: latrunculin A 1 μM for 1 h
Protocol: (§1) Cell culture and electrophysiology: Piezo1 knock-out mouse N2A (N2A^Piezo1−/−) cells were a gift from Dr. Gary R. Lewin, human Merkel cell carcinoma cell line (MCC13 cells; Cell Bank Australia reference number: CBA1338) were obtained from Sigma, and DRG neurons were obtained from sacrificed mice. N2A^Piezo1−/− cells were cultured in Dulbecco's Modified Eagle Medium (DMEM), 5% penicillin streptomycin and 10% fetal bovine serum (FBS); MCC13 cells were cultured in RPMI 1640 (with 2 mM L-glutamine+25 mM HEPES; Sigma), 5% penicillin-streptomycin and 10% FBS and; DRG neurons were cultured in DMEM, 1% penicillin-streptomycin, 1% MEM vitamin solution, 1% L-glutamine, and 10% horse serum. Prior to electrophysiological measurements, N2A^Piezo1−/−, MCC13 and DRG neurons were supplemented overnight (≈18 h) with MA. […] MA was obtained from Nu-Chek Prep, INC. The cultured cells were maintained at 37° C., 95% relative humidity, and 5% CO2.
For whole-cell recordings, the bath solution contained 140 mM NaCl, 6 mM KCl, 2 mM CaCl2), 1 mM MgCl2, 10 mM glucose, and 10 mM HEPES (pH 7.4; 300 mOsm). The pipette solution for voltage-clamp recordings contained: 140 mM CsCl, 5 mM EGTA, 1 mM CaCl2), 1 mM MgCl2, and 10 mM HEPES (pH 7.2); and for current clamp recordings: 140 mM KCl, 6 mM NaCl, 2 mM CaCl2), 1 mM MgCl2, 10 mM glucose, and 10 mM HEPES (pH 7.4; 300 mOsm); MA and bradykinin acetate salt (Sigma) perfused during experiments were dissolved in the bath solution to a final concentration of 300 μM for 2 min, and 1 μM for 5 min respectively; and for long exposure experiments bradykinin was supplemented to the culture medium and added to the cells 18-24 h prior recording. For cytoskeleton disruption experiments, N2A^Piezo1−/− were incubated in media supplemented with 1 μM latrunculin A (Cayman Chemicals) for 1 h prior recordings. Pipettes were made out of borosilicate glass (Sutter Instruments) and were fire-polished before use until a resistance between 3 and 5 MΩ was reached.
During mechanical stimulation, currents were recorded at a constant voltage (−60 mV, voltage-clamp), and voltages were recorded without injecting current (current-clamp). Both variables were sampled at 100 kHz and low-pass filtered at 10 kHz using a MultiClamp™ 700 B amplifier and Clampex (Molecular Devices, LLC). […] Leak currents before mechanical stimulations were subtracted off-line from the current traces and data were digitally filtered at 2 kHz with ClampFit (Molecular Devices, LLC).
Mechanical stimulation: For indentation assays, N2A^Piezo1−/−, MCC13 DRG neurons, and human iPSC374 derived neurons were mechanically stimulated with a heat-polished blunt glass pipette (3-4 μm) driven by a piezo servo controller (E625, Physik Instrumente). The blunt pipette was mounted on a micromanipulator at an ~45° angle and positioned 3-4 μm above from the cells without indenting them. Displacement measurements were obtained with a square-pulse protocol consisting of 1 μm incremental indentation steps, each lasting 200 ms with a 2-ms ramp in 10-s intervals. The threshold of mechano-activated currents for each experiment was defined as the indentation step that evoked the first current deflection from the baseline.

[3] = tested on: PIEZO2-PIEZO1 beam chimera; experiment: Whole-cell patch-clamp of N2A^Piezo1−/− cells transfected with Piezo2-Piezo1 beam chimera; settings: MA 100 μM 18 h; latrunculin A 1 μM for 1 h
Protocol: as §1
For whole-cell recordings, the bath solution contained 140 mM NaCl, 6 mM KCl, 2 mM CaCl2), 1 mM MgCl2, 10 mM glucose, and 10 mM HEPES (pH 7.4; 300 mOsm). The pipette solution for voltage-clamp recordings contained: 140 mM CsCl, 5 mM EGTA, 1 mM CaCl2), 1 mM MgCl2, and 10 mM HEPES (pH 7.2); and for current clamp recordings: 140 mM KCl, 6 mM NaCl, 2 mM CaCl2), 1 mM MgCl2, 10 mM glucose, and 10 mM HEPES (pH 7.4; 300 mOsm); MA and bradykinin acetate salt (Sigma) perfused during experiments were dissolved in the bath solution to a final concentration of 300 μM for 2 min, and 1 μM for 5 min respectively; and for long exposure experiments bradykinin was supplemented to the culture medium and added to the cells 18-24 h prior recording. For cytoskeleton disruption experiments, N2A^Piezo1−/− were incubated in media supplemented with 1 μM latrunculin A (Cayman Chemicals) for 1 h prior recordings. […]
During mechanical stimulation, currents were recorded at a constant voltage (−60 mV, voltage-clamp), and voltages were recorded without injecting current (current-clamp). […]

[4] = tested on: mice; experiment: Von Frey test after acute inflammation by topical AITC; type: in vivo, mouse; settings: topical AITC; saline injected mice; filaments <0.16 g
Protocol: Mice behavior: MA solution: MA was prepared in sterile Dulbecco's phosphate buffered saline, with 70 g/L fatty acid free bovine serum albumin (BSA; Sigma), and MA to a final concentration of 5 mM. The solution was filtered to avoid undissolved materials.
Subjects: For the experiment 8-12 weeks old male and female C57B16/J mice (N=12; control n=6; male=3, female=3) MA (n=6; male=3, female=3) per experiment were used. Mice were housed under a 12 hr light dark cycle and granted access to food and water ad libitum.
Treatment: Animals were put in two groups (control and MA) and given injections in the plantar of the left hind paw for 7 days prior behavioral assessment. Injections were given as follows: Mouse is restrained by their tail, foot, and over shoulders scruff. […]
Mechanical threshold (Von Frey test): Punctate mechanical allodynia was measured using Von Frey monofilaments (Stoelting, Inc.) in varying grams of force (0.008-1 g). Animals were placed in small enclosures over a wire mesh and the plantar of the hind paw was poked with a filament and responses were recorded. Withdrawal responses were recorded when the animal lifted, shook, or licked the paw in response to stimulus presentation. […]

In the case of GsMTx-4, the inhibition of mechano-currents [1] is listed as “failed to inhibit mechano-currents from DRG neurons”.
For `C/C1=C/C(=O)O[C@@H]2C[C@@H](CC[C@H](C)/C=C\C=C\CC1)O[C@@](O)([C@@H]1CSC(=O)N1)C2` [latrunculin A, reference compound], the “effect of latrunculin A on PIEZO2 inhibition by MA” value [2] was “enhances PIEZO2 inhibition by MA”, the “effect of latrunculin A on PIEZO2 inhibition by MA” value ([2]; listed as Latrunculin A) was “pronounced leftward shift in the MA dose-response profile for PIEZO2” and the “modulation of the MA effect on the chimera by latrunculin A” value [3] was “not modulated by latrunculin A treatment”.
In the case of `C=CCN=C=S` [AITC, Allyl isothiocyanate, reference compound], the “withdrawal from von Frey filaments caused by AITC” value [4] was “causes mice to withdraw their hind paws from even the lightest von Frey filaments”.
